From patent US10597388B2, “Pyridazinone herbicides” (FMC CORPORATION, priority 2014, dated 2020)

Columns and labels:
Assay in all cases: Test C greenhouse herbicide test, pre- and postemergence
Type in all cases: in vivo
soybean (Glycine max) = tested on: soybean (Glycine max)
In short: (§1)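 Seeds sown in loam–sand blend treated preemergence; plants in peat-based medium sprayed postemergence at 2–18 cm (1- to 4-leaf stage); chemicals in non-phytotoxic solvent with surfactant. Greenhouse 13–15 d, then visual rating versus controls on 0–100 scale (0 no effect, 100 complete control).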

[1] = tested on: barnyardgrass (Echinochloa crus-galli)
In short: as §1

[2] = tested on: ryegrass, Italian (Italian ryegrass, Lolium multiflorum)
In short: as §1

[3] = tested on: blackgrass (Alopecurus myosuroides)
In short: as §1

corn (Zea mays) = tested on: corn (Zea mays)
In short: as §1

[4] = tested on: velvetleaf (Abutilon theophrasti)
In short: as §1

[5] = tested on: foxtail, giant (giant foxtail, Setaria faberii)
In short: as §1

[6] = tested on: wheat (winter wheat, Triticum aestivum)
In short: as §1

[7] = tested on: nutsedge, yellow (yellow nutsedge, Cyperus esculentus)
In short: as §1

[8] = tested on: galium (catchweed bedstraw, Galium aparine)
In short: as §1

[9] = tested on: crabgrass, large (large crabgrass, Digitaria sanguinalis)
In short: as §1

[10] = tested on: johnsongrass (Sorghum halepense)
In short: as §1

[11] = 4 g ai/ha, preemergence, visual rating, scale 0 to 100 (0 no effect, 100 complete control), 13 to 15 d
[12] = Postemergence, 8 g ai/ha, scale 0 to 100 (0 no effect, 100 complete control)
[13] = Postemergence, 16 g ai/ha, scale 0 to 100 (0 no effect, 100 complete control)
[14] = Postemergence, 31 g ai/ha, scale 0 to 100 (0 no effect, 100 complete control)
[15] = Preemergence, 16 g ai/ha, scale 0 to 100, 0 is no effect, 100 is complete control
[16] = Preemergence, 31 g ai/ha, scale 0 to 100, 0 is no effect, 100 is complete control
[17] = Postemergence, 4 g ai/ha, scale 0 to 100 (0 no effect, 100 complete control)
[18] = Preemergence, 8 g ai/ha, scale 0 to 100, 0 is no effect, 100 is complete control

Cc1ccc2ccc(Cl)cc2c1-c1c(O)c(C)nn(C)c1=O [Compound 144]
Plant response rating, Soybean (soybean (Glycine max); [11]): 10
Plant response rating, Soybean (soybean (Glycine max); [12]): 40
Soybean plant response rating (soybean (Glycine max); [12]): 45
Plant response rating, Soybean (soybean (Glycine max); [13]): 25
Plant response rating, Soybean (soybean (Glycine max); [14]): 25
Plant response rating, Soybean (soybean (Glycine max); [15]): 0
Plant response rating, Soybean (soybean (Glycine max); [16]): 5
Plant response rating, Barnyardgrass [1, 11]: 0
Plant response rating, Barnyardgrass [1, 17]: 15
Plant response rating, Barnyardgrass [1, 12]: 25
Plant response rating, Barnyardgrass [1, 13]: 35
Plant response rating, Barnyardgrass [1, 14]: 65
Plant response rating, Barnyardgrass [1, 18]: 0
Plant response rating, Barnyardgrass [1, 15]: 5
Plant response rating, Barnyardgrass [1, 16]: 35
Plant response rating, Ryegrass, Italian [2, 11]: 80
Plant response rating, Ryegrass, Italian [2, 12]: 35
Ryegrass, Italian plant response rating [2, 12]: 20
Plant response rating, Ryegrass, Italian [2, 13]: 45
Plant response rating, Ryegrass, Italian [2, 14]: 70
Plant response rating, Ryegrass, Italian [2, 15]: 100
Plant response rating, Ryegrass, Italian [2, 16]: 100
Plant response rating, Blackgrass [3, 11]: 30
Plant response rating, Blackgrass [3, 17]: 30
Plant response rating, Blackgrass [3, 12]: 30
Plant response rating, Blackgrass [3, 13]: 20
Plant response rating, Blackgrass [3, 14]: 35
Plant response rating, Blackgrass [3, 18]: 55
Plant response rating, Blackgrass [3, 15]: 70
Plant response rating, Blackgrass [3, 16]: 90
Plant response rating, Corn (corn (Zea mays); [11]): 0
Plant response rating, Corn (corn (Zea mays); [17]): 0
Plant response rating, Corn (corn (Zea mays); [12]): 0
Plant response rating, Corn (corn (Zea mays); [13]): 5
Plant response rating, Corn (corn (Zea mays); [14]): 30
Plant response rating, Corn (corn (Zea mays); [18]): 0
Plant response rating, Corn (corn (Zea mays); [15]): 0
Plant response rating, Corn (corn (Zea mays); [16]): 0
Plant response rating, Velvetleaf [4, 11]: 25
Plant response rating, Velvetleaf [4, 12]: 70
Velvetleaf plant response rating [4, 12]: 50
Plant response rating, Velvetleaf [4, 13]: 90
Plant response rating, Velvetleaf [4, 14]: 85
Plant response rating, Velvetleaf [4, 15]: 85
Plant response rating, Velvetleaf [4, 16]: 90
Plant response rating, Foxtail, Giant [5, 11]: 30
Foxtail, Giant plant response rating [5, 12]: 45
Plant response rating, Foxtail, Giant [5, 12]: 50
Plant response rating, Foxtail, Giant [5, 13]: 60
Plant response rating, Foxtail, Giant [5, 14]: 70
Plant response rating, Foxtail, Giant [5, 18]: 60
Plant response rating, Foxtail, Giant [5, 15]: 75
Plant response rating, Foxtail, Giant [5, 16]: 90
Plant response rating, Wheat [6, 11]: 0
Plant response rating, Wheat [6, 12]: 90
Wheat plant response rating [6, 12]: 90
Plant response rating, Wheat [6, 13]: 95
Plant response rating, Wheat [6, 14]: 95
Plant response rating, Wheat [6, 15]: 70
Plant response rating, Wheat [6, 16]: 90
Plant response rating, Nutsedge, Yellow [7, 11]: 5
Nutsedge, Yellow plant response rating [7, 12]: 10
Plant response rating, Nutsedge, Yellow [7, 12]: 60
Plant response rating, Nutsedge, Yellow [7, 13]: 60
Plant response rating, Nutsedge, Yellow [7, 14]: 75
Plant response rating, Nutsedge, Yellow [7, 15]: 25
Plant response rating, Nutsedge, Yellow [7, 16]: 40
Plant response rating, Galium [8, 11]: 90
Galium plant response rating [8, 12]: 80
Plant response rating, Galium [8, 12]: 90
Plant response rating, Galium [8, 13]: 90
Plant response rating, Galium [8, 14]: 95
Plant response rating, Galium [8, 15]: 95
Plant response rating, Galium [8, 16]: 100
Plant response rating, Crabgrass, Large [9, 11]: 0
Crabgrass, Large plant response rating [9, 12]: 20
Plant response rating, Crabgrass, Large [9, 12]: 20
Plant response rating, Crabgrass, Large [9, 13]: 25
Plant response rating, Crabgrass, Large [9, 14]: 30
Plant response rating, Crabgrass, Large [9, 18]: 5
Plant response rating, Crabgrass, Large [9, 15]: 25
Plant response rating, Crabgrass, Large [9, 16]: 60
Plant response rating, Johnsongrass [10, 11]: 0
Johnsongrass plant response rating [10, 12]: 20
Plant response rating, Johnsongrass [10, 12]: 10
Plant response rating, Johnsongrass [10, 13]: 10
Plant response rating, Johnsongrass [10, 14]: 10
Plant response rating, Johnsongrass [10, 15]: 25
Plant response rating, Johnsongrass [10, 16]: 60
